In article PMC4669722, “Antitumour potential of BPT: a dual inhibitor of cdk4 and tubulin polymerization” (Cell Death & Disease, 2015):
Entries after “also recorded” stand apart in the source; their conditions may differ.

Experiments:
[1] = target: Cdk2-cyclin A (Homo sapiens, UniProt P24941); experiment: In vitro kinase assay, Cdk2-cyclin A (in-house); assay type: biochemical; details: three independent experiments; read-out: IC50 (mean±S.D.), Cdk2-cyclin A
Method: (§1) The in vitro kinase assays for testing against Cdk4-cyclin D1, Cdk2-cyclin A, Cdk1-cyclin B1 and Cdk9-cyclin T1 were performed in-house. The methodology and results have been reported previously.[20], [30], [31], [32], [45] The kinase profiling for 58 representative kinases was carrried out commercially at Millipore Bioscience Division, Livingston, UK.

[2] = target: Cdk1-cyclin B1 (Homo sapiens, UniProt P06493); experiment: In vitro kinase assay, Cdk1-cyclin B1 (in-house); assay type: biochemical; details: three independent experiments; read-out: IC50 (mean±S.D.), Cdk1-cyclin B1
Method: as §1

[3] = target: Cdk5-p35 (Homo sapiens, UniProt Q00535); experiment: Kinase profiling (Millipore), Cdk5-p35; assay type: biochemical
Method: as §1

[4] = target: Plk3 (Homo sapiens, UniProt Q9H4B4); experiment: Kinase profiling (Millipore), Plk3; assay type: biochemical
Method: as §1

[5] = target: PKA (Homo sapiens, UniProt P17612); experiment: Kinase profiling (Millipore), PKA; assay type: biochemical
Method: as §1

[6] = test system: pBluescript plasmid DNA; experiment: EtBr displacement assay; assay type: binding; details: 1.3 μM EtBr, pH 7.4
Method: The assays were performed in a 96-well plate with clear bottom (Costar, Washington, DC, USA). The assay involved the addition of 10 μl of 10 × concentrated stock solution of compounds (dissolved in DMSO and further diluted in EtBr displacement assay buffer) to 90 μl of reaction mixture containing 6 μg of purified pBlueScript DNA and 1.3 μM EtBr in EtBr displacement assay buffer with final pH 7.4. Equivalent amounts of DMSO were added to the vehicle controls. In addition to control samples (DNA+EtBr), test samples (DNA+EtBr+test compounds), blank 1 (EtBr only), blank 2 (DNA only), wells containing DNA and compound were also prepared to test any change in the background fluorescence readings. The reduction in relative fluorescence counts was monitored ([…]) and recorded after 1 min equilibration time. Fascaplysin and actinomycin D, which are known to intercalate d-s DNA, were used as standard compounds in assay. The mean control and test readings were corrected by subtracting blank readings. The percentage fluorescence in the test samples in reaction with control samples was calculated by using following formula: […]

[7] = test system: PC-3 (prostate; p53 null, pRb+); experiment: Cell proliferation (MTT) assay, PC-3; assay type: cell-based; details: Homo sapiens, 48 h, read-out: IC50 cell growth inhibition, PC-3
Method: All 10 human cancer cell lines were maintained at 37 °C in 5% CO2 in RPMI-1640 medium, supplemented with 10% foetal calf serum and 100 μg/ml normocin. The 10 cancer cell lines used for screening were all obtained from ATCC (Manassas, VA, USA); they were the NSCLC (a form of cancer that is resistant to chemotherapy) lines: NCI-H460 (pRb^+, p53^+), A549 (pRb^+, p53^+), Calu-1 (pRb^+, p53-null), NCI-H1299 (pRb^+, p53-null), NCI-H358 (pRb-null, p53-null); the colon cancer line LS174T (pRb^+, p53^+); the prostate cancer line PC-3 (pRb^+, p53-null); the pancreatic cancer line MiaPaca (pRb^+, p53-mutant). The genotypes within brackets indicate the status of the tumour suppressor proteins pRb and p53. The mouse embryonic normal hepatic cell line (BNL CL2) and its SV40 large T-antigen-transformed counterpart cell line (BNL SV A.8) were also purchased from ATCC. The large T-antigen inactivates the tumour suppressor proteins p53 and pRb. The detailed procedure of cell proliferation (MTT) assay and IC50 determination was described previously.[32]

[8] = test system: BNL SV A.8 (mouse embryonic SV40-transformed hepatic cells); experiment: Flow cytometric cell cycle analysis, BNL SV A.8; assay type: cell-based; details: 48 h
Method: The untreated (control) and treated (with test compounds) cells were harvested by trypsinization, washed once with PBS and then fixed in 70% chilled (−20 °C) ethanol for minimum 1 h. After the fixation step, cells were centrifuged for 5 min at 3000 × g at room temperature, and the pellet was suspended in PBS containing 50 μg/ml propidium iodide (Sigma-Aldrich, Dorset, UK; cat. no. P-4170) and 0.5 mg/ml DNase-free ribonuclease (Sigma-Aldrich; cat. no. R-5503). The cells were stained for 1 h in the dark at 4 °C. Cell cycle analysis was performed on the Beckman Coulter (Epics Altra) fluorescence-activated cell sorter (Beckman Coulter UK Ltd, Buckinghamshire, UK). To gate all the events that represent single cells, and not cell doublets or cell clumps, the following analyses were performed on the samples. Cytograms of propidium iodide fluorescence peak signal versus integrated fluorescence or the linear signal were plotted. All data points on the straight line were isolated in a single gate and the gated data was further used for plotting a histogram that represents a complete cell cycle. The total number of events was not allowed to exceed 200 events per s. Data acquisition was stopped after a minimum of 10 000 events had been collected.

[9] = test system: BNL SV A.8 (SV40-mediated transformed mouse embryonic hepatic cell line); experiment: Long-term cell survival assay, BNL SV A.8; assay type: cell-based; details: BNL SV A.8, 12 days
Method: Fig. S3: Long term survival of Mouse embryonic normal hepatic cell line (BNL CL2) and SV40 mediated transformed mouse embryonic hepatic cell line (BNL SV A.8) after the treatment with BPT. The cells were treated with the diffrent concentrations of BPT and then incubated in drug free medium for 12 days. the colonies were fixed in methanol : acetic acid (2: 1) and stained with 1% crystal violet and representative plates were scanned using the gel documentation system .

[10] = test system: HCT-116 tumours; experiment: HCT-116 xenograft efficacy in SCID mice; assay type: in vivo; details: 100 mpk intraperitoneal, 9 days, versus vehicle, P<0.05
Method: A group of 60 SCID (SCID strain-CBySmn.CB17-Prkdc^scid/J; The Jackson Laboratory, Bar harbor, ME, USA; Stock no. 001803) male mice weighing 18–25 g and 6–8 weeks old were used for the studies. Human colon carcinoma, HCT-116 (ATCC; cat. no. CCL-247) cells were grown in McCoy's 5A medium supplemented with 10% FBS (Sigma-Aldrich). The cultured cells were injected subcutaneously into the dorsal side of SCID mice at the dose of 6.6 × 10^6 cells in 0.2 ml of suspension. When the tumour growth reached to about 4–6 mm in diameter (over about 5 days), the animals were randomly divided into eight groups, each containing seven mice. The treatments were continued for 9 consecutive days intraperitoneally. Flavopiridol (2.5 mpk) was used as a positive control in this study. Tumour size was recorded at 2–5 day intervals. Tumour weight (mg) was estimated according to the formula for a prolate ellipsoid: (length (mm) × width (mm)^2) × 0.5) assuming specific gravity to be one and π to be 3. Tumour growth in compound treated animals is calculated as T/C (treated/control) × 100% and growth inhibition percent (% GI) was (100−% T/C).[48], [49], [50]

Plk3, sequence (Q9H4B4 whole entry): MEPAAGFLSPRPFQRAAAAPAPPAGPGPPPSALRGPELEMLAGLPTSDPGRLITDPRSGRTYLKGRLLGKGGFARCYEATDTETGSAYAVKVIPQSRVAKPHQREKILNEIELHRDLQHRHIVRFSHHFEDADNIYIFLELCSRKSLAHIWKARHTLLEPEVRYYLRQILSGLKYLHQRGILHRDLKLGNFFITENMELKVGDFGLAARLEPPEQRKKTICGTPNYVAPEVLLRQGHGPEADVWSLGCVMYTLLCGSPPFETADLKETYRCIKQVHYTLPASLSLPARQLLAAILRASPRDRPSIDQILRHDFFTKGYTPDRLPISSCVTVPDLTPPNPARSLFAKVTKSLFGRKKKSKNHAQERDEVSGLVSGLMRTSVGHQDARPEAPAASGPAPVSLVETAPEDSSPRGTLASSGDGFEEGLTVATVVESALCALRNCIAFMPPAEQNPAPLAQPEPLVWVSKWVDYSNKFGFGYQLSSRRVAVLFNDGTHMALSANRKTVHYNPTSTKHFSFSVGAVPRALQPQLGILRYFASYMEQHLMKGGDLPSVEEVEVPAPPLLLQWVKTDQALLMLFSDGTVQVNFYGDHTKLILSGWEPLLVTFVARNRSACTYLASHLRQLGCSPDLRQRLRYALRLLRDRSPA
Cdk5-p35, sequence (Q00535 whole entry): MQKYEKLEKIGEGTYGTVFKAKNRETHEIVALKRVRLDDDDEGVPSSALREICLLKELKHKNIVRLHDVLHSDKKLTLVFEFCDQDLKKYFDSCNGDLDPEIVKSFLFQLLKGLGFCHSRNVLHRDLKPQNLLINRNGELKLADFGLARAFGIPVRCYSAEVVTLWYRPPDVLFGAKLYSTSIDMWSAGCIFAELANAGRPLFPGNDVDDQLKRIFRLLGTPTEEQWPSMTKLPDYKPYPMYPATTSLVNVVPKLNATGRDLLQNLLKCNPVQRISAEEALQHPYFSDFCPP
Cdk5-p35, sequence (Q15078 whole entry partner): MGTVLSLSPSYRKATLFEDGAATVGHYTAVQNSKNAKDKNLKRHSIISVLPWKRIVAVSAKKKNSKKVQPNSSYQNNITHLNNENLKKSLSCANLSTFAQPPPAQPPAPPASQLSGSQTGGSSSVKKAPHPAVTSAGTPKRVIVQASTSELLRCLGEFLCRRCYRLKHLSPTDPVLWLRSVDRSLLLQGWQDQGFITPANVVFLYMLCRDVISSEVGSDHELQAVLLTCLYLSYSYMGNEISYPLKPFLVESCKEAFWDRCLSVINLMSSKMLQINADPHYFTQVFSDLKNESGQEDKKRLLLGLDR
Cdk1-cyclin B1, sequence (P06493 whole entry): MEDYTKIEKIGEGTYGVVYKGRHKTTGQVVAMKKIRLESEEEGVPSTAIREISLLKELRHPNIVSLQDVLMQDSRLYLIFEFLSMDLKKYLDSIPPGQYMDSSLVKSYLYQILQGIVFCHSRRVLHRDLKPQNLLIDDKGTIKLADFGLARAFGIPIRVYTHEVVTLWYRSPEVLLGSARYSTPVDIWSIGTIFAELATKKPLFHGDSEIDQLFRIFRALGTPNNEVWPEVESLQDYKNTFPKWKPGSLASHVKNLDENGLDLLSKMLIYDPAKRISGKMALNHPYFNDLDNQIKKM
Cdk1-cyclin B1, sequence (P14635 whole entry partner): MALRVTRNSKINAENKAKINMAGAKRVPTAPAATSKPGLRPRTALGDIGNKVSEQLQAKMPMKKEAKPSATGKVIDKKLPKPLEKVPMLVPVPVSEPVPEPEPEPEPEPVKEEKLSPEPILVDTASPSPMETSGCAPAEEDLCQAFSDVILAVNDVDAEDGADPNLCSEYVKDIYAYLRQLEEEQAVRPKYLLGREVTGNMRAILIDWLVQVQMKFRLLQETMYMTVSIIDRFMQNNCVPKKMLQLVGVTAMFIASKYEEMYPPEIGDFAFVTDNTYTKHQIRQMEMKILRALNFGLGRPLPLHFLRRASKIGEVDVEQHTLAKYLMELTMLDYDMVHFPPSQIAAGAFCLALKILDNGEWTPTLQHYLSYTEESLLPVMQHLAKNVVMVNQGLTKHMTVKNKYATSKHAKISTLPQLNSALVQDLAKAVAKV

## O=C(c1ccccc1-c1ccccc1)N1CCc2c([nH]c3ccccc23)C1 [BPT, 2-(biphenyl-2-carbonyl)-2,3,4,9-tetrahydro-1H-pyrido[3,4-b]indole]
[1]
  IC50: 831 ± 15.5 µM
[2]
  IC50: > 500 µM
[3]
  IC50: > 10 µM
[4]
  IC50: > 10 µM
[5]
  IC50: > 10 µM
[6]
  EtBr displacement from DNA: incapable of displacing; also recorded: does not displace ethidium bromide; also recorded: No EtBr displacement up to 100 μM ^a
[7]
  IC50: 0.74 µM
[8]; BNL SV A.8, IC50 concentration
  cells in Sub G1 (apoptosis): 43%
[8]; BNL SV A.8, IC70 concentration
  cells in Sub G1 (apoptosis): 51%
[9]
  number of colonies, long-term survival: selectively reduces the number of colonies
[10]
  tumour growth inhibition: ~ 80%
